The compounds below were run on anti-OVA-specific IgG1 subclass antibody (assay: Adjuvant activity test: anti-OVA-specific IgG1 subclass antibody in serum of OVA-immunized mice (ELISA)). Settings: after secondary immunization, serum 2 weeks later; OVA 5 μg + compound 0.256 μmol in 5% αCD-added saline (Addavax mixed with saline at 1:1), dorsal-subcutaneous; compared to OVA single administration group.
Assay type: in vivo, BALB/c mice
Experimental: 8-Week-old female BALB/c mice were divided into groups (N=6), and each group was primarily immunized by dorsal-subcutaneous administration of (1) ovalbumin (OVA) (5 μg) dissolved in saline as an antigen (OVA single administration group), (2) OVA 5 μg and Addavax™ (mixed with saline at 1:1) dissolved in saline (Addavax™ administration group) as positive control adjuvant, (3) OVA 5 μg and SZ137 0.256 μmol dissolved or dispersed in 5% α-cyclodextrin (hereinafter to be simply referred to as αCD)-added saline (SZ137 administration group), (4) OVA (5 μg) and SZ138 (0.256 μmol) dissolved or dispersed in 5% αCD-added saline (SZ138 administration group), (5) OVA (5 μg) and SZ142 (0.256 μmol) dissolved or dispersed in 5% αCD-added saline (SZ142 administration group), (6) OVA (5 μg) and SZ144 (0.256 μmol) dissolved or dispersed in 5% αCD-added saline (SZ144 administration group), (7) OVA (5 μg) and SZ145 (0.256 μmol) dissolved or dispersed in 5% αCD-added saline (SZ145 administration group), (8) OVA (5 μg) and SZ146 (0.256 μmol) dissolved or dispersed in 5% αCD-added saline (SZ146 administration group), (9) OVA (5 μg) and SZ147 (0.256 μmol) dissolved or dispersed in 5% αCD-added saline (SZ147 administration group), (10) OVA (5 μg) and SZ148 (0.256 μmol) dissolved or dispersed in 5% αCD-added saline (SZ148 administration group), each per mouse. Two week later, the secondary immunization was carried out by dorsal-subcutaneous administration of solutions or dispersions similar to those of the above-mentioned (1)-(10) again. Two weeks from the secondary immunization, the whole blood was extracted under anesthesia, and the obtained serum sample was measured for anti-OVA-specific IgG1 subclass antibody, anti-OVA-specific IgG2a subclass antibody, and anti-OVA-specific IgE antibody.
The measurement method of the anti-OVA-specific IgG1 subclass antibody and anti-OVA-specific IgG2a subclass antibody in Experimental Example 1 and the following Experimental Examples 2-10 is as follows.
To a 96 well plate was added 5 μg/ml OVA at 100 µl/well, and the mixture was incubated at 4° C. overnight. After incubation, the mixture was washed three times with 200 μl of PBS-T (PBS (phosphate buffered saline)+0.05% (v/v) Tween 20) per well, and blocked with 100 μl of 5% FCS (fetal calf serum)/PBS solution per well at room temperature for 1-2 hr. Thereafter, the mixture was washed three times with PBS-T (200 μl/well), a diluted serum sample (100 l/well) or the same amount of 5% FCS/PBS solution as a control was added, and the mixture was incubated at 37° C. for 1 hr. To calculate concentration of the antibody, the standard of an anti-OVA-specific IgG1 subclass antibody diluted with 2% FCS/PBS solution was added at 100 ng/ml, 50 ng/ml, 25 ng/ml, 12.5 ng/ml, 6.25 ng/ml, 3.125 ng/ml, 1.56 ng/ml, 0.781 ng/ml, 0.391 ng/ml, 0.195 ng/ml, 0.098 ng/ml, 0 ng/ml, per 1 well. When an anti-OVA-specific IgG2a subclass antibody was measured, the standard of an anti-OVA-specific IgG2a subclass antibody was added at 50 ng/ml, 25 ng/ml, 12.5 ng/ml, 6.25 ng/ml, 3.125 ng/ml, 1.56 ng/ml, 0.781 ng/ml, 0.391 ng/ml, 0.195 ng/ml, 0.098 ng/ml, 0.049 ng/ml, 0 ng/ml, per 1 well. Thereafter, similar to the samples, the mixture was washed five times with PBS-T (200 μl/well), a diluted biotinylated anti-mouse IgG1 antibody and IgG2a antibody were added (100 μl/well), and the mixture was incubated at 37° C. for 45 min. Thereafter, the mixture was washed five times with PBS-T (200 μl/well), a diluted anti-biotin-HRP antibody was added (100 μl/well), and the mixture was incubated at 37° C. for another 30 min. Thereafter, the mixture was washed five times with PBS-T (200 μl/well), TMB substrate solution was added (100 μl/well), and the mixture was incubated at room temperature for 10-15 min. Thereafter, a reaction quenching liquid (2N sulfuric acid solution) was added (50 l/well) to discontinue a color developing reaction, and the absorbance (OD Value=450 nm) was measured by a microplate reader. […]

SMILES | anti-OVA-specific IgG1 subclass antibody production
CCCCCCCCCCCCCCCC(=O)N[C@@H](CCCNC(=N)N)C(=O)NCCCCCCCC.Cl [SZ181, N-[(1S)-4-guanidino-1-(octylcarbamoyl)butyl]hexadecanamide hydrochloride] | showed a tendency to increase
CCCCCCCCCCCCCCCCCCCCCC(=O)N[C@@H](C)C(=O)NCCCCCCCCCCCC [SZ145, N-[(1S)-2-(dodecylamino)-1-methyl-2-oxo-ethyl]docosanamide] | showed a tendency to increase
CCCCCCCCCCCCCCCCNC(=O)N[C@@H](CCCCN)C(=O)NCCCCCCCC.Cl [SZ213, (2S)-6-amino-2-(hexadecylcarbamoylamino)-N-octyl-hexanamide hydrochloride] | significant enhancement
CCCCCCCC/C=C/CCCCCCCC(=O)N[C@@H](CCCNC(=N)N)C(=O)NCCCCCCCCCCCC.Cl [SZ161, (E)-N-[(1S)-1-(dodecylcarbamoyl)-4-guanidino-butyl]octadeca-9-enamide hydrochloride] | significantly increased
CCCCCCCCCCCCCCCCCCNC(=O)N[C@@H](CCCNC(=N)N)C(=O)NCCCCCCCCCCCC.Cl [SZ211, (2S)—N-dodecyl-5-guanidino-2-(octadecylcarbamoylamino)pentanamide hydrochloride] | significant enhancement
CCCCCCCCCCCCCCCCCCCCCC(=O)N[C@@H](CC(C)C)C(=O)NCCCCCCCCCCC [SZ142, N-[(1S)-3-methyl-1-(undecylcarbamoyl)butyl]docosanamide] | showed a tendency to increase
CCCCCCCCCCCCCCCCCC(=O)N[C@@H](CCCNC(=N)N)C(=O)NCCCCCCCC.Cl [SZ182, N-[(1S)-4-guanidino-1-(octylcarbamoyl)butyl]octadecanamide hydrochloride] | showed a tendency to increase
CCCCCCCCCCCCCCCC(=O)N[C@@H](CC(C)C)C(=O)NCCCCCCCCCCCC [SZ144, N-[(1S)-1-(dodecylcarbamoyl)-3-methyl-butyl]hexadecanamide] | showed a tendency to increase
CCCCCCCCCCCCCCCCCCCCCC(=O)NCCc1ccncc1.Cl [SZ209, N-[2-(4-pyridyl)ethyl]docosanamide hydrochloride] | tended to increase
CCCCCCCCCCCCCCCCOC(=O)N[C@@H](CCCNC(=N)N)C(=O)NCCCCCCCC.Cl [SZ215, hexadecyl N-[(1S)-4-guanidino-1-(octylcarbamoyl)butyl]carbamate hydrochloride] | a tendency toward increase
CCCCCCCCCCCCCCCCOC(=O)N[C@@H](CCCNC(=N)N)C(=O)NCCCCCC.Cl [SZ169, Hexadecyl N-[(1S)-4-guanidino-1-(hexylcarbamoyl)butyl]carbamate hydrochloride] | tended to increase
CCCCCCCCCCCCCCCCCC(=O)N[C@@H](CC(C)C)C(=O)NCCCCCCCCCCCC [SZ195, N-[(1S)-1-(dodecylcarbamoyl)-3-methyl-butyl]octadecanamide] | tended to increase
CCCCCCCCCCCCCCCCCCCCCC(=O)N[C@@H](CCCNC(=N)N)C(=O)N(CCCCCCC)CCCCCCC.Cl [SZ159, N-[(1S)-1-(diheptylcarbamoyl)-4-guanidino-butyl]docosanamide hydrochloride] | showed a tendency to increase
CCCCCCCCCCCCCCCCCC(=O)N[C@@H](CC(C)C)C(=O)NCCCCCCCC [SZ196, N-[(1S)-3-methyl-1-(octylcarbamoyl)butyl]octadecanamide] | significant enhancement
CCCCCCCCCCCCCCCCCCCCCC(=O)N[C@@H](CCCNC(=N)N)C(=O)NCCCCCCC.Cl [SZ163, N-[(1S)-4-guanidino-1-(heptylcarbamoyl)butyl]docosanamide hydrochloride] | tended to increase
CCCCCCCCCCCCCCCCCCCCCC(=O)NCCC(=O)NCCCCCCCCCCCC [SZ147, N-[3-(dodecylamino)-3-oxo-propyl]docosanamide] | showed a tendency to increase
CCCCCCCCCCCCCCCC(=O)N[C@@H](CCCNC(=N)N)C(=O)NCCCCCCCCCCCC.Cl [SZ111, N-[(1S)-1-(dodecylcarbamoyl)-4-guanidino-butyl]hexadecanamide hydrochloride] | significantly increased
CCCCCCCCCCCCCCCCCCCCCC(=O)N[C@@H](CCCNC(=N)N)C(=O)NCCCCCCCCCCCC.Cl [SZ138, N-[(1S)-1-(dodecylcarbamoyl)-4-guanidino-butyl]docosanamide hydrochloride] | showed a tendency to increase
CCCCCCCCCCCCNC(=O)N[C@@H](CCCNC(=N)N)C(=O)NCCCCCCCCCCCC.Cl [SZ212, (2S)—N-dodecyl-2-(dodecylcarbamoylamino)-5-guanidino-pentanamide hydrochloride] | significant enhancement
CCCCCCCCCCCCCCCCCCCCCC(=O)N[C@@H](CCCCNC(=N)N)C(=O)NCCCCCC.Cl [SZ170, N-[(1S)-5-guanidino-1-(hexylcarbamoyl)pentyl]docosanamide hydrochloride] | tended to increase
CCCCCCCCCCCCCCCCNC(=O)N[C@@H](CCCNC(=N)N)C(=O)NCCCCCC.Cl [SZ168, (2S)-5-guanidino-2-(hexadecylcarbamoylamino)-N-hexyl-pentanamide hydrochloride] | tended to increase
CCCCCCCCCCCCCCCCCCCCCC(=O)NC(C)(C)C(=O)NCCCCCCCCCCCC [SZ146, N-[2-(dodecylamino)-1,1-dimethyl-2-oxo-ethyl]docosanamide] | showed a tendency to increase
CCCCCCCCCCCCCCCCNC(=O)NCCCCNC(=N)N.Cl [SZ190, 1-(4-guanidinobutyl)-3-hexadecyl-urea hydrochloride] | showed a tendency to increase
CCCCCCCCCCCCCCCCCCCCCC(=O)NCC(C)(C)C(=O)NCCCCCCCCCCCC [SZ148, N-[3-(dodecylamino)-2,2-dimethyl-3-oxo-propyl]docosanamide] | showed a tendency to increase
CCCCCCCCCCCCCCCCCCCCCC(=O)N[C@@H](CC(C)C)C(=O)NCCCCCCCCCCCC [SZ197, N-[(1S)-1-(dodecylcarbamoyl)-3-methyl-butyl]docosanamide] | tended to increase
CCCCCCCCCCCCCCCCCC(=O)NCC(C)(C)C(=O)NCCCCCCCCCCCC [SZ204, N-[3-(dodecylamino)-2,2-dimethyl-3-oxo-propyl]octadecanamide] | significant enhancement
CCCCCCCCCCCCCCCCCCCC(=O)N[C@@H](CCCNC(=N)N)C(=O)NCCCCCCCC.Cl [SZ183, N-[(1S)-4-guanidino-1-(octylcarbamoyl)butyl]icosanamide hydrochloride] | significant enhancement

— patent US20180311342A1, “IMMUNOSTIMULATING AGENT” (AJINOMOTO CO., INC., priority 2017, published 2018)
